The results in this text go back to patent publication US20100298245A1, “Pharmaceutical Composition for the Treatment of IL-8 mediated diseases” (Revotar Biopharmaceuticals AG, priority 2007, published 2010).

The test system of the assay is Interleukin 8 (IL-8). In words: Human clinical trial in COPD patients: IL-8 level in induced sputum supernatant (enzyme immunoassay). Format: in vivo. The protocol: A human clinical trial (trial) was conducted to investigate effects of the disodium salt of compound of formula (I) (1,6-Bis [3-(3-carboxymethylphenyl)-4-(2-α-D-mannopyranosyloxy)-phenyl] hexan) on patients with chronic obstructive pulmonary disease (COPD). The trial was carried out according to known methods and according to the “good clinical practices” (GCP), applicable regulatory requirements, and was based on written approval of the Independent Ethics Committee (IEC). Patients were enrolled in the trial based on inclusion and exclusion criteria known.
Patients were treated by inhalation of the disodium salt of the compound of formula (I) for 10 days. The unit dose strength for nebulization was 70 mg in 4 ml of 0.9% NaCl twice a day (bid). To investigate laboratory parameters the procedure of induced sputum (IS) was used to harvest cells and sputum supernatant for further analysis.
To investigate levels of Interleukin 8 (IL-8) in the sputum supernatant, sputum was frozen after collection. Once, all samples were collected, levels of IL-8 were analyzed by using a commercial available enzyme immunoassay for the in vitro quantification of human IL-8 in biological fluids. IL-8 sample concentrations were determined employing calibration curves.

Turning to `O=C(O)Cc1cccc(-c2cc(CCCCCCc3ccc(O[C@H]4O[C@H](CO)[C@@H](O)[C@H](O)[C@@H]4O)c(-c4cccc(CC(=O)O)c4)c3)ccc2O[C@H]2O[C@H](CO)[C@@H](O)[C@H](O)[C@@H]2O)c1` [compound of formula (I), 1,6-Bis [3-(3-carboxymethylphenyl)-4-(2-α-D-mannopyranosyloxy)-phenyl] hexane], for the setting “COPD patients, induced sputum supernatant, after inhalation of disodium salt 70 mg in 4 ml 0.9% NaCl bid for 10 days, Mann-Whitney Rank Sum Test p=0.031 vs before”, the “median value of levels of IL8 in sputum supernatant after treatment” value stood at 4985 pg/mL. The “median value of levels of IL8 in sputum supernatant before treatment” value (COPD patients, induced sputum supernatant, baseline before inhalation treatment) turned out to be 15419 pg/mL. In addition, for the setting “after vs before treatment, inhalation 70 mg bid for 10 days, statistically significant (p=0.031) and clinically relevant”, the “change of the IL-8 medians” value is listed as −68%.
